The numbers were not newly measured in patent publication US20230066413A1, “ST[…]” (priority 2021, published 2023), which cites them from elsewhere.

In the data set the test system is antibiotic-resistant bacteria. The following applies: stated in background, no experiment described.

Turning to `O=c1c(O)c(-c2ccc(O)c(O)c2)oc2cc(O)cc(O)c12` [Quercetin], the bactericidal concentration is 5,000 parts per million.
